The source made the active and inactive calls. No cut-off for these calls is given here.
Legend:
Mus musculus [1] = test: Antiobesity activity in Sabra mouse assessed as change in food consumption at 1 mg/kg, ip administered on day 8, 9, 10, 11, 14, 18, 24 and 32 measured after 2 weeks relative to control; assay type: functional; conditions: route intraperitoneal
Mus musculus [2] = test: Antiobesity activity in Sabra mouse assessed as change in body weight at 1 mg/kg, ip administered on day 8, 9, 10, 11, 14, 18, 24 and 32 measured on day 4 relative to control; assay type: functional; conditions: route intraperitoneal
[3] = molecular target: Cannabinoid receptor 1 (Homo sapiens) (UniProt P21554); test: Displacement of [3H]SR141716A from human CB1 receptor expressed in rat Chem-1 cell membrane at 10 uM relative to control; assay type: cell membranes
Cannabinoid receptor 1 (Homo sapiens), sequence (P21554 whole entry): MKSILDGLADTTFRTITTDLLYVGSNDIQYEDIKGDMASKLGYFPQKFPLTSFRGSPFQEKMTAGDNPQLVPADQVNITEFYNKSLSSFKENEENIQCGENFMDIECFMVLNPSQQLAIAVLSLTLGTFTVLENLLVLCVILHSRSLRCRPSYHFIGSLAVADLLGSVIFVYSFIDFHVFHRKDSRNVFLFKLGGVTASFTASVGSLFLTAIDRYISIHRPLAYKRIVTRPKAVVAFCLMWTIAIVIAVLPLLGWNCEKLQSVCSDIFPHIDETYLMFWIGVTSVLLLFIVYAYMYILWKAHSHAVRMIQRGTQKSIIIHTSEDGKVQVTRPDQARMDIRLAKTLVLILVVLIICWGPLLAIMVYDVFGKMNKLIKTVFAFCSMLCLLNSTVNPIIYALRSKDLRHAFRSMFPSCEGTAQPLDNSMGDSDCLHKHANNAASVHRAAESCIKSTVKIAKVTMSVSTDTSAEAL

Mus musculus [4] = test: Antiobesity activity in Sabra mouse assessed as change in body weight at 1 mg/kg, ip administered on day 8, 9, 10, 11, 14, 18, 24 and 32 measured on day 35 relative to control; assay type: functional; conditions: route intraperitoneal
Hypothalamus [5] = test: Effect on NPY gene expression in Sabra mouse hypothalamus assessed as change in mRNA level at 1 mg/kg, ip administered on day 8, 9, 10, 11, 14, 18, 24 and 32 by RT-PCR analysis relative to GAPDH; assay type: functional; conditions: route intraperitoneal
Mus musculus [6] = test: Increase in motor activity Sabra mouse at 1 mg/kg, ip administered on day 8, 9, 10, 11, 14, 18, 24 and 32 measured on day 14 by open field test; assay type: functional, organism-based; set-up: dose 1 mg/kg
Mus musculus [7] = test: Antiobesity activity in Sabra mouse assessed as change in food consumption at 1 mg/kg, ip administered on day 8, 9, 10, 11, 14, 18, 24 and 32 measured after 5 weeks relative to control; assay type: functional; conditions: route intraperitoneal
[8] = molecular target: Transient receptor potential cation channel subfamily V member 1 (Rattus norvegicus) (UniProt O35433); test: Displacement of [3H]resiniferatoxin from TRPV1 receptor in Wistar rat spinal cord at 10 uM relative to control
Transient receptor potential cation channel subfamily V member 1 (Rattus norvegicus), sequence (O35433 whole entry): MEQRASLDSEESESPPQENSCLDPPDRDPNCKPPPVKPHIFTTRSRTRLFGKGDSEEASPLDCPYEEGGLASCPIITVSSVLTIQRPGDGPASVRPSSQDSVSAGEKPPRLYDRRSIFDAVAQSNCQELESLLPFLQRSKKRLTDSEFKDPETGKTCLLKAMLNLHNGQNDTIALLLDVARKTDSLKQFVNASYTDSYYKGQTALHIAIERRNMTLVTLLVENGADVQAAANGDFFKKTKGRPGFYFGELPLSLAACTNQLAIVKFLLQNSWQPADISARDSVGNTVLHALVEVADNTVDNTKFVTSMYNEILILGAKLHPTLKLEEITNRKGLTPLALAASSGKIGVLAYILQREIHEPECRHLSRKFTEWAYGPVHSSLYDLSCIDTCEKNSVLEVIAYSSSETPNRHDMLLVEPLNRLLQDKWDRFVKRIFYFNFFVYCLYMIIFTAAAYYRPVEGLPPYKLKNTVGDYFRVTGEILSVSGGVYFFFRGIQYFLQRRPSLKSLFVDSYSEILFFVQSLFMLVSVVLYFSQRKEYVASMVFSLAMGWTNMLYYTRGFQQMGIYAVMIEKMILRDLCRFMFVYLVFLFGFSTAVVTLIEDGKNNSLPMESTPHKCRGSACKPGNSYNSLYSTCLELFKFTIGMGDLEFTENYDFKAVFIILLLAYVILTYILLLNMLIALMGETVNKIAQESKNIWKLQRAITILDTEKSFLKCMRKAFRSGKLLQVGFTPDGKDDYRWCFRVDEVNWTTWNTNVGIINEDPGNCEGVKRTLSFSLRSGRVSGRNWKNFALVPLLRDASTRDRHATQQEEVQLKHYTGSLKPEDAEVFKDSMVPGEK

[9] = molecular target: Cannabinoid receptor 2 (Homo sapiens) (UniProt P34972); test: Displacement of [3H]WIN-55,212-2 from human recombinant CB2 receptor expressed in CHO-K1 cells at 10 uM relative to control; assay type: cell-based
Cannabinoid receptor 2 (Homo sapiens), sequence (P34972 whole entry): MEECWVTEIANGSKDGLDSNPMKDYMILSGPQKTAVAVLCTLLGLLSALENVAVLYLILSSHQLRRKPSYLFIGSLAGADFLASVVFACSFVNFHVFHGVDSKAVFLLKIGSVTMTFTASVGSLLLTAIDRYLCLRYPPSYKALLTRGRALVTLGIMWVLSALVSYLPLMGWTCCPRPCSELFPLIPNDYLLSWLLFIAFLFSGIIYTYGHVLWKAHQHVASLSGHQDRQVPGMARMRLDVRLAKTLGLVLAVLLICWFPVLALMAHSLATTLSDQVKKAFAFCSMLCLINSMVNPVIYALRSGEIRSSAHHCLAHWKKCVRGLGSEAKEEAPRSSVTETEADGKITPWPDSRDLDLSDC

[10] = molecular target: T1, Peroxisome proliferator-activated receptor alpha (Homo sapiens) (UniProt Q07869); test: Binding affinity to human recombinant PPARalpha expressed in Escherichia coli at 10 uM for 16 hrs by spectrofluorimetric analysis relative to control
T1 sequence (whole entry): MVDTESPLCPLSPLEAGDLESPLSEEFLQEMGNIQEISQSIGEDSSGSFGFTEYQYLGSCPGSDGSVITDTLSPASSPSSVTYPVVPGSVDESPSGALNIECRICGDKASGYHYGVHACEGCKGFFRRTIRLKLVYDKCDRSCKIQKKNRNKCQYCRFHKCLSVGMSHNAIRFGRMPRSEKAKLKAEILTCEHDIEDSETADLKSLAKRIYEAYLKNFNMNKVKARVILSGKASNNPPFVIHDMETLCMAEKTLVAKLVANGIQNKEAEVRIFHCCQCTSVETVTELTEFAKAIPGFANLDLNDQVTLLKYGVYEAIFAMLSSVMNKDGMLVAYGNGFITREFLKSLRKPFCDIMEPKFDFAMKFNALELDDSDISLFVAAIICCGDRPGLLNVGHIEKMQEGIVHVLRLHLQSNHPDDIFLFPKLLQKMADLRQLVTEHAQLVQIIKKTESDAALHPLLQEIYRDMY

Mus musculus [11] = test: Antiobesity activity in Sabra mouse assessed as change in body weight at 1 mg/kg, ip administered on day 8, 9, 10, 11, 14, 18, 24 and 32 measured on day 39 relative to control; assay type: functional; conditions: route intraperitoneal
Hypothalamus [12] = test: Effect on 5HT1A gene expression in Sabra mouse hypothalamus assessed as change in mRNA level at 1 mg/kg, ip administered on day 8, 9, 10, 11, 14, 18, 24 and 32 by RT-PCR analysis relative to GAPDH; assay type: functional; conditions: route intraperitoneal
Mus musculus [13] = test: Antiobesity activity in Sabra mouse assessed as change in body weight at 1 mg/kg, ip administered on day 8, 9, 10, 11, 14, 18, 24 and 32 measured on day 25 relative to control; assay type: functional; conditions: route intraperitoneal
Mus musculus [14] = test: Antiobesity activity in Sabra mouse assessed as change in body weight at 1 mg/kg, ip administered on day 8, 9, 10, 11, 14, 18, 24 and 32 measured on day 30 relative to control; assay type: functional; conditions: route intraperitoneal
[15] = molecular target: T2, Fatty-acid amide hydrolase 1 (Rattus norvegicus) (UniProt P97612); test: Inhibition of rat brain FAAH using [3H]anandamide as substrate at 10 uM preincubated for 15 mins before substrate addition relative to control
T2 sequence (whole entry): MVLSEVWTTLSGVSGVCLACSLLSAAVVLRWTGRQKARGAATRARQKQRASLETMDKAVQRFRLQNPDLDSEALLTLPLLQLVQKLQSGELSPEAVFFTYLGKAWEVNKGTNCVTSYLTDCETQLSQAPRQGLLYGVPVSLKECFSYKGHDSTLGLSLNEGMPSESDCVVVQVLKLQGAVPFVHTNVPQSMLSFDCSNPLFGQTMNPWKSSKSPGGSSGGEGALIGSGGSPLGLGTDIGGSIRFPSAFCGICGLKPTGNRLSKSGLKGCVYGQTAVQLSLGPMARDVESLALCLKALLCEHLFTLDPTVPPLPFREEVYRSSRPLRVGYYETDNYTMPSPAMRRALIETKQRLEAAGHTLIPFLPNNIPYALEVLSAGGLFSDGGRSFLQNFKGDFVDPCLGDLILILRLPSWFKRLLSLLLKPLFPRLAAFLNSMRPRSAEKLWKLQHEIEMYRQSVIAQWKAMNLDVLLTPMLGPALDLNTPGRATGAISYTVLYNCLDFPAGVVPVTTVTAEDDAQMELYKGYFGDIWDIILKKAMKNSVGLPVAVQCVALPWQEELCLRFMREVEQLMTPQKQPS

Mus musculus [16] = test: Antiobesity activity in Sabra mouse assessed as change in food consumption at 1 mg/kg, ip administered on day 8, 9, 10, 11, 14, 18, 24 and 32 measured after 4 weeks relative to control; assay type: functional; conditions: route intraperitoneal
Mus musculus [17] = test: Antiobesity activity in Sabra mouse assessed as change in body weight at 1 mg/kg, ip administered on day 8, 9, 10, 11, 14, 18, 24 and 32 measured on day 21 relative to control; assay type: functional; conditions: route intraperitoneal
Mus musculus [18] = test: Antiobesity activity in Sabra mouse assessed as change in food consumption at 1 mg/kg, ip administered on day 8, 9, 10, 11, 14, 18, 24 and 32 measured after 6 weeks relative to control; assay type: functional; conditions: route intraperitoneal
Mus musculus [19] = test: Antiobesity activity in Sabra mouse assessed as change in food consumption at 1 mg/kg, ip administered on day 8, 9, 10, 11, 14, 18, 24 and 32 measured after 3 weeks relative to control; assay type: functional; conditions: route intraperitoneal
Mus musculus [20] = test: Antiobesity activity in Sabra mouse assessed as change in body weight at 1 mg/kg, ip administered on day 8, 9, 10, 11, 14, 18, 24 and 32 measured on day 14 relative to control; assay type: functional; conditions: route intraperitoneal
Mus musculus [21] = test: Antiobesity activity in Sabra mouse assessed as change in body weight at 1 mg/kg, ip administered on day 8, 9, 10, 11, 14, 18, 24 and 32 measured on day 9 relative to control; assay type: functional; conditions: route intraperitoneal
Hypothalamus [22] = test: Effect on FAAH gene expression in Sabra mouse hypothalamus assessed as change in mRNA level at 1 mg/kg, ip administered on day 8, 9, 10, 11, 14, 18, 24 and 32 by RT-PCR analysis relative to GAPDH; assay type: functional; conditions: route intraperitoneal
Hypothalamus [23] = test: Effect on CART gene expression in Sabra mouse hypothalamus assessed as change in mRNA level at 1 mg/kg, ip administered on day 8, 9, 10, 11, 14, 18, 24 and 32 by RT-PCR analysis relative to GAPDH; assay type: functional; conditions: route intraperitoneal
Hypothalamus [24] = test: Effect on CAMKK2 gene expression in Sabra mouse hypothalamus assessed as change in mRNA level at 1 mg/kg, ip administered on day 8, 9, 10, 11, 14, 18, 24 and 32 by RT-PCR analysis relative to GAPDH; assay type: functional; conditions: route intraperitoneal
Hypothalamus [25] = test: Effect on POMC gene expression in Sabra mouse hypothalamus assessed as change in mRNA level at 1 mg/kg, ip administered on day 8, 9, 10, 11, 14, 18, 24 and 32 by RT-PCR analysis relative to GAPDH; assay type: functional; conditions: route intraperitoneal

| Structure (SMILES) | Activity (Mus musculus [1]) | Activity (Mus musculus [2]) | inhibition [3] | Activity (Mus musculus [4]) | Activity (Hypothalamus [5]) | Activity (Mus musculus [7]) | inhibition [9] | Activity [10] | Activity (Mus musculus [11]) | Activity (Hypothalamus [12]) | Activity (Mus musculus [13]) | Activity (Mus musculus [14]) | Activity (Mus musculus [16]) | Activity (Mus musculus [17]) | Activity (Mus musculus [18]) | Activity (Mus musculus [19]) | Activity (Mus musculus [20]) | Activity (Mus musculus [21]) | Activity (Hypothalamus [22]) | Activity (Hypothalamus [23]) | other results |
| --- | --- | --- | --- | --- | --- | --- | --- | --- | --- | --- | --- | --- | --- | --- | --- | --- | --- | --- | --- | --- | --- |
| CCCCCCCCCCCCCCCCCC(=O)N[C@H](CO)C(C)C | 96% | 2.1% | 6% | -7.8% | -39% | 100.5% | 6% | 0% | -6% | -16% | -5.3% | -5.8% | 85.7% | -1.8% | 82.5% | 93.8% | -1.4% | 0.9% | -26% | 2% | Activity (Mus musculus [6]): inactive; inhibition [8]: -9%; inhibition [15]: 0%; Activity (Hypothalamus [24]): -14%; Activity (Hypothalamus [25]): 43% |
| CCCCCCCC/C=C/CCCCCCCC(=O)N[C@H](CO)C(C)C | 98.5% | 3.1% | 8% | 1.6% | 69% | 109.2% | 5% | 0% | 0% | -9% | 0.7% | 0.2% | 104.9% | -0.1% | 104.5% | 108.1% | 1% | -0.1% | 15% | -11% | inhibition [8]: 6%; inhibition [15]: 7%; Activity (Hypothalamus [24]): 62%; Activity (Hypothalamus [25]): 10% |
| CCCCCCCC/C=C/CCCCCCCC(=O)N[C@@H](CO)C(C)C | 102.9% | -2.3% | 7% | 1.4% | -9% | 111.4% | 0% | 0% | -1% | -18% | -1.1% | 0.2% | 108% | -1% | 109.1% | 112% | -0.3% | -1.7% | -46% | 25% | Activity (Mus musculus [6]): inactive; inhibition [15]: 13%; Activity (Hypothalamus [24]): 8%; Activity (Hypothalamus [25]): 5% |
| CCCCCCCC/C=C\CCCCCCCC(=O)N[C@@H](CO)C(C)C | 79.4% | 0.4% | 36% | -6% | 8% | 80.6% | 5% | 0% | -6.7% | 17% | -3.3% | -4.7% | 81.8% | -1.7% | 77.3% | 78.1% | -3.1% | -0.8% | -28% | 44% | Activity (Mus musculus [6]): Active; inhibition [8]: 3%; inhibition [15]: 8%; Activity (Hypothalamus [24]): -2%; Activity (Hypothalamus [25]): 31% |
| CCCCCCCCCCCCCCCC(=O)N[C@H](CO)C(C)C | 97% | 1.9% | 21% | -8.5% | -52% | 97.4% | 0% | 2% | -6.7% | -1% | -4.9% | -7.1% | 85.9% | 3% | 81.4% | 96.8% | -2.2% | -2.1% | 15% | -13% | Activity (Mus musculus [6]): inactive; Activity (Hypothalamus [24]): 15%; Activity (Hypothalamus [25]): 2% |

— ChEMBL document CHEMBL2321853, “Novel acylethanolamide derivatives that modulate body weight through enhancement of hypothalamic pro-opiomelanocortin (POMC) and/or decreased neuropeptide Y (NPY)” (J Med Chem, 2013)
